Laboratory results reported in ChEMBL document CHEMBL1159193, “Synthesis and in vitro anti-human immunodeficiency virus activity of artemisinin (qinghaosu)-related trioxanes” (Bioorg Med Chem Lett, 1994).

Legend:
[1] = In vitro cytotoxicity assessed by measuring [3H]-thymidine uptake in human peripheral blood mononuclear (PBM) cells; assay type: functional
[2] = In vitro anti-HIV activity in human peripheral blood mononuclear (PBM) cells acutely infected with HIV-1 LAI; assay type: functional

COC(=O)c1ccc([C@H]2OOC3(CCC[C@@H](C)C3)[C@@H](OC)O2)cc1 (some centres undefined)
IC50 [1]: > 100 µM | EC50 [2]: > 100 µM

C[C@@H]1CC[C@H]2[C@@H](C)C(=O)O[C@@H]3O[C@@]4(C)CC[C@@H]1[C@]32OO4 [ARTEMISININ]
IC50 [1]: > 100 µM | EC50 [2]: > 100 µM

CCO[C@H]1O[C@@H]2O[C@@]3(C)CC[C@H]4[C@H](C)CC[C@@H]([C@H]1C)[C@@]24OO3 [ARTEMOTIL]
IC50 [1]: 30.9 µM | EC50 [2]: 41.2 µM

CCCC[C@H]1O[C@@H]2O[C@]3(C)CC[C@H]4[C@H](C)CC[C@@H]([C@H]1C)[C@@]24OO3
IC50 [1]: 1.3 µM | EC50 [2]: 4.7 µM

Cc1cn([C@H]2C[C@H](N=[N+]=[N-])[C@@H](CO)O2)c(=O)[nH]c1=O [ZIDOVUDINE]
IC50 [1]: > 100 µM | EC50 [2]: 0.004 µM

C[C@@H]1CC[C@H]2[C@@H](C)CCO[C@@H]3O[C@]4(C)CC[C@@H]1[C@]32OO4
IC50 [1]: > 100 µM | EC50 [2]: 50.2 µM

C[C@@H]1CC[C@H]2[C@@H](C)CO[C@@H]3O[C@]4(C)CC[C@@H]1[C@]32OO4 [DEOXOARTEMISININ]
IC50 [1]: > 100 µM | EC50 [2]: > 100 µM
